Experiment [1] has as its target T1, Androgen receptor (Rattus norvegicus, UniProt P15207).
T1 sequence (P15207 whole entry): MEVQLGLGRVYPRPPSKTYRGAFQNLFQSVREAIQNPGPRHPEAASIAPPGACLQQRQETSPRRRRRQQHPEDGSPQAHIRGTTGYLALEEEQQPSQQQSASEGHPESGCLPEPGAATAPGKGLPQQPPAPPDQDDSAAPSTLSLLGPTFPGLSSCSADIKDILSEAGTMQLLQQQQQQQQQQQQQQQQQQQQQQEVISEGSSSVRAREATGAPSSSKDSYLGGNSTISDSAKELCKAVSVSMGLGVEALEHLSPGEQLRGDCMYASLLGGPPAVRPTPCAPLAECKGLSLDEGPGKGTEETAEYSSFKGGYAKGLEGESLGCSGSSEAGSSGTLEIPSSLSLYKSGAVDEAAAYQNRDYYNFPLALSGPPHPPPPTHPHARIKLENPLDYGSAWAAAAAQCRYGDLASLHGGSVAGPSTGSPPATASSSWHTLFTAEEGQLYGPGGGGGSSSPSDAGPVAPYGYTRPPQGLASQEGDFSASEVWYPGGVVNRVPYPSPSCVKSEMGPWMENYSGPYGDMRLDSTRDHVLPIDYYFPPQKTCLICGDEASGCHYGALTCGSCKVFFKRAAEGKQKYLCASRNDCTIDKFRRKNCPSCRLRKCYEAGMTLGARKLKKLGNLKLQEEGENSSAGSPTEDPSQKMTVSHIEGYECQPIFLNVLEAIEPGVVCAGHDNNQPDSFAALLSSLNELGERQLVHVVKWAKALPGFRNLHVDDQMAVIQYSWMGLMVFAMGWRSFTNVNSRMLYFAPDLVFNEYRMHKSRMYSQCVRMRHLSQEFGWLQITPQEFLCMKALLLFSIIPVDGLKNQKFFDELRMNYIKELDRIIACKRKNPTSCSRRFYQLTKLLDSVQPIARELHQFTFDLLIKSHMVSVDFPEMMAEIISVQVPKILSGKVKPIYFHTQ
In kind it is functional.

The target of experiment [2] is T2, Peroxisome proliferator-activated receptor gamma (Homo sapiens, UniProt P37231).
T2 sequence (P37231 whole entry): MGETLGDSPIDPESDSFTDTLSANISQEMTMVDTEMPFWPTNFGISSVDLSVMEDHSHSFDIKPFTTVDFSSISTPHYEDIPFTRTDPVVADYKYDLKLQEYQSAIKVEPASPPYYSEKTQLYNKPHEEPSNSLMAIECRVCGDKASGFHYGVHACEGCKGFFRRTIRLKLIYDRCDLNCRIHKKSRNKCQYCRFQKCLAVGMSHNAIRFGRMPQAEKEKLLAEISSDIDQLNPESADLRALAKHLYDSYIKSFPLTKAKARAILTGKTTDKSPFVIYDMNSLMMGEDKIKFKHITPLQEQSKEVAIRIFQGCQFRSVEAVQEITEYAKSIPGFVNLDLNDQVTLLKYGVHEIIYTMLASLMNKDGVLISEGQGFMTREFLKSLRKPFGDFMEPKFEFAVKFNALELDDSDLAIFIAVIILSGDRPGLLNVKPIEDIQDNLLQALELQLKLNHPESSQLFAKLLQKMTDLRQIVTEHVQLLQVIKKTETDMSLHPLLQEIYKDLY
In kind it is functional.

For experiment [3], the target named is Gamma-aminobutyric acid receptor subunit alpha-1/alpha-2/beta-2/gamma-2 (Homo sapiens, UniProt P14867+P18507+P47869+P47870). In kind it is functional, cell-based.
Experiment [4] deals with T1, Androgen receptor.
The target of experiment [5] is T3, Corticotropin-releasing factor receptor 1 (Homo sapiens, UniProt P34998).
T3 sequence (P34998 whole entry): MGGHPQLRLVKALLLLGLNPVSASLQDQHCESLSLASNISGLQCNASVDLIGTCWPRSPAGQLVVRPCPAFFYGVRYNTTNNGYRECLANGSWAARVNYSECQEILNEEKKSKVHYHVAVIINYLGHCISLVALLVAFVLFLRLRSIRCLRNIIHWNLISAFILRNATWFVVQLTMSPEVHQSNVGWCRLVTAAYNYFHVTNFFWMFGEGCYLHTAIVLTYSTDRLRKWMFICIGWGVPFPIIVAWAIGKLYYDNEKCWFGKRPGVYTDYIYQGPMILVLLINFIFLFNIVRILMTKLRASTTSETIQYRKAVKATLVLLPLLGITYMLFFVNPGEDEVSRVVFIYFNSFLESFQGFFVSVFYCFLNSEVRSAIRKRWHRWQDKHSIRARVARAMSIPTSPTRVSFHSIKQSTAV

In experiment [6] the target is T4, B1 bradykinin receptor (Homo sapiens, UniProt P46663).
T4 sequence (P46663 whole entry): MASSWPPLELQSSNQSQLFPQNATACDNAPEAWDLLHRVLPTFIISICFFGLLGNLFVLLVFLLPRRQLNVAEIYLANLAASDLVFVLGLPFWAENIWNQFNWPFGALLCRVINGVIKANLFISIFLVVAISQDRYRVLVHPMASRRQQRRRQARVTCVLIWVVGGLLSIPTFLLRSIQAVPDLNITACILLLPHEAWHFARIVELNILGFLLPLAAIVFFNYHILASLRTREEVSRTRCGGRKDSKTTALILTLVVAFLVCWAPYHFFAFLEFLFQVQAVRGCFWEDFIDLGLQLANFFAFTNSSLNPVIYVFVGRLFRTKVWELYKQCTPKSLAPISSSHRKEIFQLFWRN

Experiment [7] concerns the target T5, Gastric inhibitory polypeptide receptor (Homo sapiens, UniProt P48546).
T5 sequence (P48546 whole entry): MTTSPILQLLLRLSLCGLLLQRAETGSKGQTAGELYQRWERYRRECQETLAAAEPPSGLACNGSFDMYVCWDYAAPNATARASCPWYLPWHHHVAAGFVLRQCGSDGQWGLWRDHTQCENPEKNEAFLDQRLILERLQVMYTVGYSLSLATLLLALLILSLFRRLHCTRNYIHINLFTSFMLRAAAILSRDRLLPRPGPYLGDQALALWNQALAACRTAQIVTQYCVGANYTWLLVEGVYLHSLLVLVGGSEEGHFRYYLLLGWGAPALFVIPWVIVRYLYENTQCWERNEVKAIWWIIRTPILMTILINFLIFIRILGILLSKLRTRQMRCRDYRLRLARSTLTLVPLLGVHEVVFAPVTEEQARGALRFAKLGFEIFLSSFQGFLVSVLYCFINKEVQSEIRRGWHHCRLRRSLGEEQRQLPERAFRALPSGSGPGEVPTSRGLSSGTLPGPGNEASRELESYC

The structures appear in SMILES notation.

By AC50 is commonly meant the midpoint of the concentration-response curve, whichever way the signal moves. Read a low AC50 as activity at low concentration.
Further: assay procedure not described here.

Gamma-aminobutyric acid receptor subunit alpha-1/alpha-2/beta-2/gamma-2, sequence (P14867 whole entry): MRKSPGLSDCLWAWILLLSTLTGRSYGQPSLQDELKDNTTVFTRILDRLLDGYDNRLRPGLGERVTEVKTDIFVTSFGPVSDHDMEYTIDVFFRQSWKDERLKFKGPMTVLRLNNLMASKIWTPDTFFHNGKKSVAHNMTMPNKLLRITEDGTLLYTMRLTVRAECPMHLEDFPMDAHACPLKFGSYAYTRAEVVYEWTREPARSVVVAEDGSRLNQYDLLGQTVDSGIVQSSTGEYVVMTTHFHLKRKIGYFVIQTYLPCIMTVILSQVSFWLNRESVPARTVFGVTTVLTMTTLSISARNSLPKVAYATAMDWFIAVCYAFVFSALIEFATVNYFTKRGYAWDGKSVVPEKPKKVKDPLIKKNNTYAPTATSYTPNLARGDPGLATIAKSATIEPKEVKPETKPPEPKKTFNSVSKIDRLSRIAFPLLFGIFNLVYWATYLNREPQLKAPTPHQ
Gamma-aminobutyric acid receptor subunit alpha-1/alpha-2/beta-2/gamma-2, sequence (P47870 whole entry): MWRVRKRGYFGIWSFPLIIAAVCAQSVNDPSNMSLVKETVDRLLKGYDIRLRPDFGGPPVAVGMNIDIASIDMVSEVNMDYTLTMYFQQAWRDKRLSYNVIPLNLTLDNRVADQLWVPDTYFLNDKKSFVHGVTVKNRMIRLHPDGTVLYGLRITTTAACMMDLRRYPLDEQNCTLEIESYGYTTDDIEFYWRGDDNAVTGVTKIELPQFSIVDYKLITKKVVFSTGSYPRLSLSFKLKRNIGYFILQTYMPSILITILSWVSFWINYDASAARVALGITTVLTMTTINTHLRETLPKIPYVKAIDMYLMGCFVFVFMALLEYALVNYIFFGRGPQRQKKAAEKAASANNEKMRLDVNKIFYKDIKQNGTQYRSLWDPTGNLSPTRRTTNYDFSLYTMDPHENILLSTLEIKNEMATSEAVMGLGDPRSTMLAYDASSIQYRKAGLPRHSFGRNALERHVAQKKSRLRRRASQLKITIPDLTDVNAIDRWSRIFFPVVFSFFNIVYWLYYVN
Gamma-aminobutyric acid receptor subunit alpha-1/alpha-2/beta-2/gamma-2, sequence (P18507 whole entry): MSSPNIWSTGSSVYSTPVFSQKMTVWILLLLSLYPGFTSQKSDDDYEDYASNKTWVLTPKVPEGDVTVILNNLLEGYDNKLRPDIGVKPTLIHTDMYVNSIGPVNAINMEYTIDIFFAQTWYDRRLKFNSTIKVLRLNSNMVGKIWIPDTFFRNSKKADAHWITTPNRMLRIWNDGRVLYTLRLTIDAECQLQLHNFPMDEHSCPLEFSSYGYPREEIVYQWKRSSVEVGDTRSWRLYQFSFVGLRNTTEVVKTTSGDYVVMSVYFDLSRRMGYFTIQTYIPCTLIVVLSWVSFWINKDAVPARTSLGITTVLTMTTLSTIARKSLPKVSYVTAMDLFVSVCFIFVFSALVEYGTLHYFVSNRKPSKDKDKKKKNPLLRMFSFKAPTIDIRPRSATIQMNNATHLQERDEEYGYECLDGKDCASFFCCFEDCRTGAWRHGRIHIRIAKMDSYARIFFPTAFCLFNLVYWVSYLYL
Gamma-aminobutyric acid receptor subunit alpha-1/alpha-2/beta-2/gamma-2, sequence (P47869 whole entry): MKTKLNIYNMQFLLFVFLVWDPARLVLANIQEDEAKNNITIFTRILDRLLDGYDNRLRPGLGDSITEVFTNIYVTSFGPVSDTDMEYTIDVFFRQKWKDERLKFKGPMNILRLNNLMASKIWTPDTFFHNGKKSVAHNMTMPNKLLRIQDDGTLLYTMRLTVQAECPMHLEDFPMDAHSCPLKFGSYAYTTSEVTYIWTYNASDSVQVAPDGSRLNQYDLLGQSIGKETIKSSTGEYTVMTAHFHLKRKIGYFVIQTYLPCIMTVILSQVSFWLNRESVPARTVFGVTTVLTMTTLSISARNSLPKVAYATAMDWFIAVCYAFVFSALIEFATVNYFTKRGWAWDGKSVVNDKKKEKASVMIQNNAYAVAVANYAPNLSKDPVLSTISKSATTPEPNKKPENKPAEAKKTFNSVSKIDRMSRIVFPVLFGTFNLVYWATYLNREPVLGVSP

In turn, `Cc1nc2ccc(CN(C)c3ccc(C(=O)N[C@@H](CCC(=O)O)C(=O)O)s3)cc2c(=O)[nH]1` [RALTITREXED] came in with a concentration at half-maximal activity (AC50) in experiment [1] of over 30 µM. On the same count and under the same terms, the result for `O=C1NCCN1CCN1CCC(c2cn(-c3ccc(F)cc3)c3ccc(Cl)cc23)CC1` [SERTINDOLE] reads over 30 µM; that for `CCCCN1CCCCC1C(=O)Nc1c(C)cccc1C` (stereo not given) [BUPIVACAINE], over 30 µM. Consider `O=C1CN=C(c2ccccc2)c2cc(Cl)ccc2N1CC(F)(F)F` [HALAZEPAM], for which the AC50 in experiment [2] and in experiment [3] was over 30 µM throughout. Take `CCC(C(=O)O)c1ccc(CC(C)C)cc1` (stereo not given) [BUTIBUFEN]: the AC50 in experiment [1] was over 30 µM.

In turn, `CCCCC(C)(O)C/C=C/[C@H]1[C@H](O)CC(=O)[C@@H]1CCCCCCC(=O)OC` (stereo not given in full) [MISOPROSTOL] showed an AC50 in experiment [3] of over 30 µM. `COc1c(C)c2c(c(O)c1C/C=C(\C)CCC(=O)OCCN1CCOCC1)C(=O)OC2` [MYCOPHENOLATE MOFETIL] came in with an AC50 in experiment [1] of over 30 µM. `CCOc1cc(N)c([N+](=O)[O-])cc1C(=O)NC1CCN(CC2CC=CCC2)CC1` (stereo not given) [CINITAPRIDE] showed a concentration at half-maximal activity (AC50) in experiment [1] of over 30 µM.

Consider `CCC1(C2=CCCCCC2)C(=O)NC(=O)NC1=O` [HEPTABARBITAL], for which the AC50 in experiment [4] is over 10 µM. As to `COc1ccc(C(=O)N2CCN(c3ccc4c(c3)CCC(=O)N4)CC2)cc1OC` [VESNARINONE], in experiment [3], the AC50 is over 30 µM. For `Cc1c(C(=O)Nc2ccc(N3C[C@@H](C)O[C@@H](C)C3)nc2)cccc1-c1ccc(OC(F)(F)F)cc1` [SONIDEGIB], the AC50 in experiment [5], in experiment [6], in experiment [7] and in experiment [4] was over 30 µM each time. For `COC(=O)C1=C(C)NC(C)=C(C(=O)OC(C)C)C1c1cccc2nonc12` (stereo not given) [ISRADIPINE], the AC50 in experiment [4] was over 30 µM.

Consider `CC/C=C\C/C=C\C/C=C\CCCCCCCC(=O)O` [LINOLENIC ACID], for which the concentration at half-maximal activity (AC50) in experiment [3] is over 30 µM. Consider `CCN1CCC[C@H]1CNC(=O)c1cc(S(N)(=O)=O)ccc1OC` [LEVOSULPIRIDE], for which the concentration at half-maximal activity (AC50) in experiment [4] was over 30 µM.

Turning to `C1=Cc2cccc(OCC3CNCCO3)c2C1` (stereo not given) [INDELOXAZINE], the AC50 in experiment [1] is over 30 µM.

`C#CCN[C@@H]1CCc2ccccc21` [RASAGILINE]: the AC50 in experiment [4] is over 30 µM. For `CN1CCC2=C(C1)C(c1ccccc1)c1ccccc12` (stereo not given) [PHENINDAMINE], in experiment [4], the AC50 was over 30 µM. Consider `C#CC1(OC(N)=O)CCCCC1` [ETHINAMATE], for which the AC50 in experiment [4] is over 10 µM. As to `CN1CCc2cccc3c2[C@H]1Cc1ccc(O)c(O)c1-3` [APOMORPHINE], the half-maximal activity concentration (AC50) in experiment [5], in experiment [6] and in experiment [7] was over 30 µM in each case.

Compound `C=C1CC[C@@]2(O)[C@H]3Cc4ccc(O)c5c4[C@@]2(CCN3CC2CC2)[C@H]1O5` gave a half-maximal activity concentration (AC50) in experiment [3] of over 30 µM.

`CN[C@@H]1[C@H](O)[C@H](NC)[C@H]2O[C@@]3(O)C(=O)C[C@@H](C)O[C@H]3O[C@@H]2[C@H]1O` [SPECTINOMYCIN] yielded an AC50 in experiment [4] of over 10 µM.

The compound `COc1ccc2c(c1)c(CC(=O)OCC(=O)O)c(C)n2C(=O)c1ccc(Cl)cc1` [ACEMETACIN] returned an AC50 in experiment [1] of over 30 µM. With `CN[C@@H](C)[C@H](O)c1ccccc1` [EPHEDRINE], the AC50 in experiment [5], in experiment [6] and in experiment [7] was over 30 µM throughout. `CC1=CC(=O)c2ccccc2C1=O` [MENADIONE]: the AC50 in experiment [4] was over 30 µM. Regarding `CCNC(C)Cc1cccc(C(F)(F)F)c1` (stereo not given) [FENFLURAMINE], the concentration at half-maximal activity (AC50) in experiment [5], in experiment [6] and in experiment [7] was over 30 µM throughout. Regarding `CCCCCOC(=O)Nc1nc(=O)n([C@@H]2O[C@H](C)[C@@H](O)[C@H]2O)cc1F` [CAPECITABINE], the AC50 in experiment [2] and in experiment [3] was over 30 µM throughout. `CC(=O)O[C@@]12CO[C@@H]1C[C@H](O)[C@@]1(C)C(=O)[C@H](O)C3=C(C)[C@@H](OC(=O)[C@H](O)[C@@H](NC(=O)OC(C)(C)C)c4ccccc4)C[C@@](O)([C@@H](OC(=O)c4ccccc4)[C@H]21)C3(C)C` [DOCETAXEL ANHYDROUS]: the AC50 in experiment [4] is over 30 µM. Turning to `Cc1cc(-c2ccccc2)nnc1NCCN1CCOCC1` [MINAPRINE], the AC50 in experiment [5], in experiment [6] and in experiment [7] was over 30 µM throughout.

Compound `CCCOc1ccc(C(=O)OCCN(CC)CC)cc1N` [PROPARACAINE] yielded an AC50 in experiment [2] of over 30 µM.

`Nc1ncnc2c1ncn2[C@@H]1O[C@H](COP(=O)(O)O)[C@@H](O)[C@H]1O` [ADENOSINE PHOSPHATE] came in with an AC50 in experiment [3] of over 30 µM. `COc1ccc2cccc(CCNC(C)=O)c2c1` [AGOMELATINE]: the AC50 in experiment [5], in experiment [6], in experiment [7] and in experiment [4] was over 30 µM in each case. On to `CC(C)c1c(C(=O)Nc2ccccc2)c(-c2ccccc2)c(-c2ccc(F)cc2)n1CC[C@@H](O)C[C@@H](O)CC(=O)O` [ATORVASTATIN], for which the AC50 in experiment [5], in experiment [6] and in experiment [7] was over 30 µM in each case. For the compound `Nc1nc2ccc(OC(F)(F)F)cc2s1` [RILUZOLE], the AC50 in experiment [2] and in experiment [3] was over 30 µM in each case. The compound `Cc1cccc(C)c1NC(=O)C1CCCCN1C` (stereo not given) [MEPIVACAINE] came in with an AC50 in experiment [2] of over 30 µM. Consider `C[C@H]1C[C@@H]2[C@H]([C@@H](O)C[C@@]3(C)[C@H]2CC[C@]3(O)C(=O)COC(=O)CCC(=O)O)[C@@]2(C)C=CC(=O)C=C12` [METHYLPREDNISOLONE HEMISUCCINATE], for which the concentration at half-maximal activity (AC50) in experiment [2] and in experiment [3] was over 30 µM each time. `NC(CO)C(=O)NNCc1ccc(O)c(O)c1O` (stereo not given) [BENSERAZIDE]: the AC50 in experiment [5], in experiment [6], in experiment [7] and in experiment [4] was over 30 µM each time. Turning to `CN1CC[C@]23CCCC[C@H]2[C@H]1Cc1ccc(O)cc13` [LEVORPHANOL], in experiment [4], the AC50 is over 10 µM.

Values taken from ChEMBL document CHEMBL5291721, “A preclinical secondary pharmacology resource illuminates target-adverse drug reaction associations of marketed drugs” (Nat Commun, 2023).
